Experimental data: patent publication US20210040452A1, “HEMATOPOIETIC CELLS AND METHODS OF USING AND GENERATING THE SAME” (The Regents of the University of California, priority 2015, published 2021)

How the values were obtained:
[1] = system: wild type E11 whole AGM explants; test: AGM explant culture with DAPT, HE ratio by FACS; assay type: cell-based, mouse
Excerpt: Currently it is not possible to predict which specific endothelial cell within a hemogenic vascular bed will transition to a hematopoietic fate. Also not known is whether endothelial cells comprising the same hemogenic site are all capable of EHT. So whether the actual cell fate conversion is a stochastic event or a predetermined fate change remains to be seen. To circumvent the current obstacles of EHT prediction, we adopted a fate tracing strategy^48 that allows measurement of traced hematopoietic cell populations from labeled endothelial precursors within a specific hemogenic vascular site. By inducing endothelial recombination of Sox17 in AGM explants using the Cdh5(PAC)-CreERT2/RTom/Sox17flox transgenic mouse line, the number of EHT derived hematopoietic cells can be quantified through fate mapping (FIG. 13c, and FIG. 25C). Tamoxifen induction in vitro with the active metabolite 4-hydroxytamoxifen (4-OHT) at E11.0 allows immediate ablation in AGM explants during EHT, and the calculation of a HE ratio which we define as traced hematopoietic cells (HCs) compared to traced endothelial cells (ECs). […] The observed increase in HE ratios and HSPC number is not due to proliferation effects (as measured by BrdU incorporation, FIG. 25D), nor is the higher HE ratio due to changes in cell death (Annexin-V staining, supplementary FIG. 25D). We also observe increases in maturing hematopoietic populations (CD31−CD117+Sca1+Td+), FIG. 25E. In addition, when a similar strategy is applied to earlier explants (E9.5) prior to hematopoietic cell cluster emergence, we observe similar trends in the HE ratio (FIG. 25F). […] To further evaluate the role of Sox17 in this process, we undertook gain-of-function studies in wildtype AGM explants using adenoviral-mediated overexpression of human Sox17 (AdhSox17-GFP), FIG. 13g. GFP expression in explants overlapped with SOX17 co-staining (FIG. 13h), allowing for cell sorting of AGM endothelial cells (CD31+) that were either successfully infected (GFP+) or not infected (GFP−) by AdhSox17-GFP, FIG. 13i. […] We also show the known positive regulation of Notch1 by Sox17, and regulation of other SoxF family members, Sox7 and Sox18.
Whole embryos or AGMs were dissociated as described67 and stained for 30 min at 4° C. with agitation. Single cell suspensions were sorted in a BD FACS Aria III. Flow cytometric analyses were performed on a FACS Verse or FACS Aria III with FACSDiva 8.0 software (BD Biosciences) and data analyzed using FlowJo v10.0.7 (Tree Star). Gating strategy in FIG. 25C, see Table 7 for a list of antibodies.
AGMs from Cdh5(PAC)-CreERT2/R26RTd/Sox17 and Notch1 floxed embryos were dissected and cultured for 24 hrs in 4-hydroxytamoxifen 4-OHT (Sigma H7904) as previously described48, at E11 (and E9.5 for Sox17 mutants). In vivo induction was achieved by intraperitoneal injection of 0.8 mg of tamoxifen of pregnant dams at E9.5. Tamoxifen (MP Biomedical, 156738) prepared as previously described48. DAPT γ-secretase inhibitor (Sigma, D5942) was prepared in DMSO and added directly to explant culture medium at final concentrations of 25 μM, 50 μM, 100 μM, or 200 μM. For overexpression studies, AGMs were incubated with 8×10^7 adenoviral particles per milliliter at 37 C with agitation for 1 hr prior to explant culture48. Adeno-CMV-hSox17-GFP (AdhSox17-GFP) was produced by Vector Biolabs (ADV-224019, Ref Seq: BC140307).

mouse embryos at E12.5 = test: Mitotic arrest by nocodazole injection into mouse embryos; assay type: in vivo; conditions: E12.5, 2 hrs prior to sacrifice
murine HSPCs = test: Addition of Tgfβ1 to newly formed murine HSPCs; assay type: cell-based; conditions: preliminary mouse studies

Compound: C[C@H](NC(=O)Cc1cc(F)cc(F)c1)C(=O)N[C@H](C(=O)OC(C)(C)C)c1ccccc1 [DAPT]
- HE ratios after AGM explants were exposed [1]: increased HE ratios
- HE ratio in comparison to control ([1]; 50-100 μM DAPT, 24 hours, control DMSO): significant increase
- Wildtype HE ratio (DAPT), Mean ([1]; WT + 25 μM, 24 hours): 0.9771
- Wildtype HE ratio (DAPT), Mean ([1]; WT + 50 μM, 24 hours): 0.9702
- Wildtype HE ratio (DAPT), Mean ([1]; WT + 100 μM, 24 hours): 0.9649
- Wildtype HE ratio (DAPT), Mean ([1]; WT + 200 μM, 24 hours): 0.8264

Compound: COC(=O)Nc1nc2ccc(C(=O)c3cccs3)cc2[nH]1 [nocodazole]
- mitotic arrest in the endothelium (mouse embryos at E12.5): not arrested in mitosis
- mitotic arrest in the myocardium (mouse embryos at E12.5): multiple cell division arrests

Compound: Tgfβ1: transforming growth factor β1
- maturation of HSPCs (murine HSPCs): may accelerate their maturation
